Source: patent publication US20150231167A1, “TREATMENT OF HEMATOLOGICAL NEOPLASMS” (THOMAS JEFFERSON UNIVERSITY, priority 2012, published 2015)

Assays:
Stat5a = target: T1, Stat5a (Homo sapiens, UniProt P42229); assay: Stat5a dimerization, co-immunoprecipitation of FLAG- and MYC-tagged Stat5a in PC-3 cells; assay type: cell-based; details: pre-treated 2 h, hPrl 10 nM 30 minutes
T1 construct: expressed in transfected cells; host or cells: PC-3
T1 sequence (P42229 1-794): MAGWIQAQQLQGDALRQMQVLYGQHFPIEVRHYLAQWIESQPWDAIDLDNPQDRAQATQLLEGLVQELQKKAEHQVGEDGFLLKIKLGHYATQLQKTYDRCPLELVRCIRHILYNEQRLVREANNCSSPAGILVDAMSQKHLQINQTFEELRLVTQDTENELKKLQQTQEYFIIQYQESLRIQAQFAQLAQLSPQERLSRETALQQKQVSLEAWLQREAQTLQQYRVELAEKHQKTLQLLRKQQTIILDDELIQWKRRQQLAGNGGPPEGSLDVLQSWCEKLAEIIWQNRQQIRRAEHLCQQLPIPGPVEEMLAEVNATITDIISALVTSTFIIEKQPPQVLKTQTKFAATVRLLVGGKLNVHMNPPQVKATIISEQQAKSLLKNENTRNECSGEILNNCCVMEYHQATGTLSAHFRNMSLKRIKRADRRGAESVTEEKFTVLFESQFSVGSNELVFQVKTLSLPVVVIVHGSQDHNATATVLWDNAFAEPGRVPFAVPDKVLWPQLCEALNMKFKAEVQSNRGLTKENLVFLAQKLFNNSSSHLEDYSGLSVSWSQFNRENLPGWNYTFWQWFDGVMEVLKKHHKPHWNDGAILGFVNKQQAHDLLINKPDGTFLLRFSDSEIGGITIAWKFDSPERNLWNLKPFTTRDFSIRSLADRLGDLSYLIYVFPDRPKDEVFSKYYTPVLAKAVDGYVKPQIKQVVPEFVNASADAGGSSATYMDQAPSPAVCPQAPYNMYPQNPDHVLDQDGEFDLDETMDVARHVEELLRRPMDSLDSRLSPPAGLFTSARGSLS
Experimental: FLAG-tagged Stat5a and MYC-tagged Stat5a were generated as follows by standard molecular biology cloning techniques. Plasmid pCMV3-FLAG-Stat5a, pCMV3-MYC-Stat5a and pPr1R were co-transfected using FuGENE6 (Roche) into PC-3 cells (2 μg of each plasmid per 1×10^7 cells). The cells were starved for 20 hours, pre-treated with N^6-benzyladenosine for 2 h, then stimulated with hPrl (10 nM) in RPMI 1640 without serum for 30 minutes. The cell lysates were immunoprecipitated with 25 μl anti-FLAG M2 […] affinity gel (2 μg/ml, Sigma), anti-MYC pAb (1 μg/ml, Upstate) or normal rabbit serum (NRS). The primary antibodies were used in the immunoblottings at the following concentrations: anti-FLAG pAb (1:1000; Stratagene), anti-MYC mAb (1:1000; Sigma), anti-Stat5a/b mAb (1:250) (Transduction Laboratories) detected by horseradish peroxidase-conjugated secondary antibodies.
Lanes 1, 2, 4, 6 and 8 represent cells stimulated with human prolactin (Prl) for 30 minutes which induces dimerization of Stat5. Two hours prior to Prl-stimulation, the cells had been treated with DMSO (lanes 1-4), the control compound C5 (lanes 5 and 6) or N^6-benzyladenosine (lanes 7 and 8) to test whether the Stat5a/b-inhibitor compound, N6BA, would be able to inhibit dimerization of Stat5. […] It should be noted the drug effect in this study was not due to cell apoptosis induction, as the treatment time was only 2 hours.

Stat5a/b [1] = assay: Western blot of Stat5a/b phosphorylation in K562 cells; assay type: cell-based, human
Experimental: (§1) Exponentially growing K562 cells were treated with 5 μM N6BAP or pimozide for 3 h after which the cells were harvested. Pimozide is a Stat5 inhibitor in leukemia cells (Nelson et al., Blood 117:3421-3429, 2011). Cell pellets were solubilized in lysis buffer [10 mM Tris-HCl (pH 7.6), 5 mM EDTA, 50 mM sodium chloride, 30 mM sodium pyrophosphate, 50 mM sodium fluoride, 1 mM sodium orthovanadate, 1% Triton X-100, 1 mM phenylmethylsulfonyl fluoride, 5 μg/ml aprotinin, 1 μg/ml pepstatin A, and 2 μg/ml leupeptin], rotated end-over-end at 4° C. for 60 min, and insoluble material was pelleted at 12,000×g for 30 min at 4° C. The protein concentrations of clarified cell lysates were determined by simplified Bradford method (Bio-Rad Laboratories, Hercules, Calif.). Western blotting of the lysates was carried out using, as primary antibodies, the following antibodies at the following concentrations: anti-phosphotyrosine-Stat5a/b (Y694/Y699) mAb (1 μg/ml, Advantex BioReagents, Conroe, Tex.), anti-Stat5ab mAb (1:250; BD Biosciences, San Jose, Calif.), anti-human Abl mAb (Calbiochem) or anti-phosphotyrosine mAb (Millipore).
(§2) Exponentially growing K562 cells were treated with N6BA for 3 h or 6 h after which the cells were harvested. […] The protein concentrations of clarified cell lysates were determined by simplified Bradford method (Bio-Rad Laboratories, Hercules, Calif.). […]

Stat5a/b [2] = assay: Western blot of Stat5a/b phosphorylation in parental KCL22 cells (KCL22S); assay type: cell-based, human; details: various concentrations, 6 h or 16 h
Experimental: (§3) Exponentially growing KCL22 and KCL22R cells were treated with N6BAP at various concentrations for 6 h or 16 h after which the cells were harvested. Cell pellets were solubilized in lysis buffer [10 mM Tris-HCl (pH 7.6), 5 mM EDTA, 50 mM sodium chloride, 30 mM sodium pyrophosphate, 50 mM sodium fluoride, 1 mM sodium orthovanadate, 1% Triton X-100, 1 mM phenylmethylsulfonyl fluoride, 5 μg/ml aprotinin, 1 μg/ml pepstatin A, and 2 μg/ml leupeptin], rotated end-over-end at 4° C. for 60 min, and insoluble material was pelleted at 12,000×g for 30 min at 4° C. The protein concentrations of clarified cell lysates were determined by simplified Bradford method (Bio-Rad Laboratories, Hercules, Calif.). Western blotting of the lysates was carried out using, as primary antibodies, the following antibodies at the following concentrations: anti-phosphotyrosine-Stat5a/b (Y694/Y699) mAb (1 μg/ml, Advantex BioReagents, Conroe, Tex.), anti-Stat5ab mAb (1:250; BD Biosciences, San Jose, Calif.) or anti-actin pAb (Sigma). Anti-actin was included as a control.
as §2

Stat5a/b [3] = assay: Western blot of Stat5a/b phosphorylation in imatinib-resistant KCL22 cells (KCL22R); assay type: cell-based, human; details: various concentrations, 6 h or 16 h
Experimental: as §3, §2

K562 cells = assay: K562 cell viability, MTS metabolic activity assay; assay type: cell-based, human; details: 72 h at 3.1, 6.3, 12.5, 25 and 50 μM
Experimental: (§4) Exponentially growing K562 cells were treated with N6BAP or the control compound C5 for 72 h at 3.1, 6.3, 12.5, 25 and 50 μM indicated concentrations. The cell viability was assessed by MTS ([…]) metabolic activity assay (CellTiter 96® AQueous Assay kit).
as §4, with “K562 leukemia” for “K562”, “N6BA” for “N6BAP”, “μM” for “μM indicated”

Stat5 = Stat5 transcriptional activity, beta-casein promoter luciferase reporter gene assay in PC-3 cells; assay type: cell-based, human; details: pretreated 1 hour, 10 nM hPrl for 16 hours, firefly/Renilla luciferase
Experimental: Cells of the human prostate cell line PC-3 were plated into 96-well plate at the density of 2×10^5 per well. After 24 hours of plating, cells were transiently co-transfected using FuGENE6 (Roche) with 0.25 μg of each of pStat5a or pStat5b, pPr1R (prolactin receptor) plasmids, 0.5 μg of pBeta-casein-luc and 0.025 μg of pRL-TK (Renilla luciferase plasmids as an internal control. After another 24 hours of transfection, the cells were starved in serum-free medium for 8 hours, pretreated with N^6-benzyladenosine (“N6BA”), or the control compound C5, for 1 hour, and then stimulated with 10 nM human prolactin (hPrl) in the serum-free medium for additional 16 hours. The lysates were assayed for firefly and Renilla luciferase activities using the Dual-Luciferase reporter assay system (Promega). Three independent experiments were carried out in triplicate. The firefly luciferase activity was normalized to the Renilla luciferase activity of the same sample, and the mean was calculated from the parallels. From the mean values of each independent run, the overall mean and its standard deviation (S.D.) were calculated.

BV173 T315I = assay: Growth of imatinib-resistant BV173 T315I line, trypan blue viable cell count; assay type: cell-based, human; details: 5 μM; 24, 48, 72 and 96 hours
Experimental: (§5) KKCL22 and BV173 parent cell lines, and imatinib-resistant counterpart cell lines, were cultured in the presence culture medium without any compounds (Ctrl), DMSO (0.1%), the control compound C5 (5 μM) or N6BAP at 5 μM concentration. The imatinib-resistant lines are characterizes by the bcr-abl T315I mutation, which provides imatinib resistance. The cells were harvested at 24, 48, 72 and 96 hours, trypan blue stained and the numbers of viable cells were counted for each time-point.

[4] = test system: BCR-ABL-driven human leukemic cell lines; assay: Cell cycle progression analysis (data not shown); assay type: cell-based
BV173 = assay: Growth of BV173 parent cell line, trypan blue viable cell count; assay type: cell-based, human; details: 5 μM; 24, 48, 72 and 96 hours
Experimental: as §5

BCR-ABL = target: T2, BCR-ABL (Homo sapiens, UniProt P00519); assay: Western blot of BCR-ABL phosphorylation and protein levels in K562 cells; assay type: cell-based; details: 5 μM, 3 h
T2 construct: endogenous in cells; host or cells: K562; the other entry of the earlier key: BCR (P11274, Breakpoint cluster region protein)
T2 sequence (P00519 with tags, fused parts or gaps): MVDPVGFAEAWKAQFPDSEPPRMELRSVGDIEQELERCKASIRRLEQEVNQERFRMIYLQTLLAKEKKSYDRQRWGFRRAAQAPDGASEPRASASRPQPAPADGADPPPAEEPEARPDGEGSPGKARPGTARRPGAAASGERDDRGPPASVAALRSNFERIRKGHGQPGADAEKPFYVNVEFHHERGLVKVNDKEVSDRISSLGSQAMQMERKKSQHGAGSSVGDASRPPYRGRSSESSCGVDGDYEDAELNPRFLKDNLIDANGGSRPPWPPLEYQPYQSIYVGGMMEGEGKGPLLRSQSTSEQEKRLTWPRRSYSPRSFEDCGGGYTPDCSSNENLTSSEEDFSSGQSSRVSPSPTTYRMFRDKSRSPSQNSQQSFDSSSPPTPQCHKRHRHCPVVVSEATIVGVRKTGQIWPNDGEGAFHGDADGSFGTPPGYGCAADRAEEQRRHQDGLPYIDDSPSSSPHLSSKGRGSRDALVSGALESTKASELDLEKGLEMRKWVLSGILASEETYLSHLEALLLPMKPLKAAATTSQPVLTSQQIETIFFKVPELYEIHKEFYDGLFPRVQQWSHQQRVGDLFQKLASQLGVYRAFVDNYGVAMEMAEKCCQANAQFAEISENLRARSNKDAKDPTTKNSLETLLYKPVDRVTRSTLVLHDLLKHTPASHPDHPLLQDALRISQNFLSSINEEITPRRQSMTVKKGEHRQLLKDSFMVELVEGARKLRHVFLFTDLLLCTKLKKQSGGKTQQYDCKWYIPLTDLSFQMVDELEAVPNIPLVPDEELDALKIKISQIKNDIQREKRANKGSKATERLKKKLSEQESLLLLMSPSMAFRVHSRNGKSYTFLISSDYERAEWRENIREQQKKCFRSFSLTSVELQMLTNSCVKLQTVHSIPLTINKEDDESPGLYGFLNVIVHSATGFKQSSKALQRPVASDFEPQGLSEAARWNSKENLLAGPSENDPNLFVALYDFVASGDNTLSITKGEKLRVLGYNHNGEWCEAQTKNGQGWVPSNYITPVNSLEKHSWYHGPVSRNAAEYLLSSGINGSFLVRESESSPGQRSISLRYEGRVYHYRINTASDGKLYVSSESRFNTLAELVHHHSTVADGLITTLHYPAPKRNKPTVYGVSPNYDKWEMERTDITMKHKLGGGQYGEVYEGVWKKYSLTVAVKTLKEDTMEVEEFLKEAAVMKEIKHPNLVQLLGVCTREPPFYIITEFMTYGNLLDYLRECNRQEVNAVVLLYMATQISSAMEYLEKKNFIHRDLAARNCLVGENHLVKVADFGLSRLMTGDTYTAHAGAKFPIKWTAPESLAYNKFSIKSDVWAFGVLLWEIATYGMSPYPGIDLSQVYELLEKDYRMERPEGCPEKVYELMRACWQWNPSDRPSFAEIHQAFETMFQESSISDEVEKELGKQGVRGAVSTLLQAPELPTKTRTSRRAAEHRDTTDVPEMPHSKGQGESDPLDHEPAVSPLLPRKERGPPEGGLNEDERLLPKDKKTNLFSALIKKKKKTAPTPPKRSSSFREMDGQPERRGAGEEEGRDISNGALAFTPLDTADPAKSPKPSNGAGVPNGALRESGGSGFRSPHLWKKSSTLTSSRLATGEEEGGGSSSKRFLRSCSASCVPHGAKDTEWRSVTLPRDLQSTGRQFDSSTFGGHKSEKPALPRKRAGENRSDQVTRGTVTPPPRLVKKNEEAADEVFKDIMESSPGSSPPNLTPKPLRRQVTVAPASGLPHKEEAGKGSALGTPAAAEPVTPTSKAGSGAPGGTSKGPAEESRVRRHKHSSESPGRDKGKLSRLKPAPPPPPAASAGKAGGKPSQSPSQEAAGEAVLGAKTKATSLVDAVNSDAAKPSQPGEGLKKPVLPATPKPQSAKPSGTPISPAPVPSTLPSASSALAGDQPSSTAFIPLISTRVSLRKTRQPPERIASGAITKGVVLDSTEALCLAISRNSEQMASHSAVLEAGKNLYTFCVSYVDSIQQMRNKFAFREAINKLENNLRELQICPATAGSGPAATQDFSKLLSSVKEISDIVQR
Experimental: as §1

[5] = test system: imatinib-resistant K562 line; assay: Growth of imatinib-resistant K562 line, trypan blue viable cell count; assay type: cell-based, human; details: 5 μM; 24, 48, 72 and 96 hours
Experimental: (§6) The K562 parent cell line and an imatinib-resistant K562 line were cultured in the presence of culture medium without any compounds (Ctrl), DMSO (0.1%), the control compound C5 (5 μM) or N6BAP at 5 μM concentration. The cells were harvested at 24, 48, 72 and 96 hours, trypan blue stained and the numbers of viable cells were counted for each time-point.

KCL22 = assay: Growth of KCL22 parent cell line, trypan blue viable cell count; assay type: cell-based, human; details: 5 μM; 24, 48, 72 and 96 hours
Experimental: as §5

KCL22 T315I = assay: Growth of imatinib-resistant KCL22 T315I line, trypan blue viable cell count; assay type: cell-based, human; details: 5 μM; 24, 48, 72 and 96 hours
Experimental: as §5

K562 parent cell line = assay: Growth of K562 parent cell line, trypan blue viable cell count; assay type: cell-based, human; details: 5 μM; 24, 48, 72 and 96 hours
Experimental: as §6

Nc1nc(SCc2cccnc2)[nH]c(=O)c1NC(=O)c1ccco1 [C5, reference compound]
Stat5a dimerization (Stat5a): did not inhibit dimerization of Stat5a

OC[C@H]1O[C@@H](n2cnc3c(NCc4ccccc4)ncnc32)[C@H](O)[C@@H]1O [N6BA, N^6-benzyladenosine]
phosphorylation of Stat5 (Stat5a/b [1]; indicated concentrations, 3 h or 6 h): inhibits phosphorylation of Stat5 | phosphorylation of Stat5 (Stat5a/b [2]): inhibits phosphorylation of Stat5 | phosphorylation of Stat5 (Stat5a/b [3]): inhibits phosphorylation of Stat5 | number of viable K562 cells (MTS) (K562 cells): decreased the number of K562 cells | Stat5a dimerization (Stat5a): effectively inhibited Stat5a dimerization | transcriptional activity of Stat5 (Stat5): inhibits transcriptional activity of Stat5

O=P(O)(O)OC[C@H]1O[C@@H](n2cnc3c(NCc4ccccc4)ncnc32)[C@H](O)[C@@H]1O [N6BAP, N^6-benzyladenosine-5′-monophosphate]
growth of imatinib-resistant BV173 T315I (BV173 T315I): blocked the growth of the corresponding imatinib-resistant cell lines | apoptotic death (cell cycle progression analysis) [4]: induced apoptotic death | phosphorylation of Stat5 (Stat5a/b [1]; 5 μM, 3 h, Western blot anti-pYStat5): blocks phosphorylation of Stat5 | phosphorylation of Stat5 (Stat5a/b [2]): blocks phosphorylation of Stat5 | phosphorylation of Stat5 (Stat5a/b [3]): blocks phosphorylation of Stat5 | growth of parental cell line BV173 (BV173): blocked not only the growth of the parental cell lines | number of viable K562 cells (MTS) (K562 cells): reduces the number of viable K562 human leukemia cells | BCR-ABL protein levels (BCR-ABL): did not affect | phosphorylation of BCR-ABL (BCR-ABL; anti-phosphotyrosine mAb): did not affect phosphorylation of BCR-ABL | growth of the imatinib-resistant K562 cell line [5]: blocked the growth of the imatinib-resistant cell line | growth of parental cell line KCL22 (KCL22): blocked not only the growth of the parental cell lines | growth of imatinib-resistant KCL22 T315I (KCL22 T315I): blocked the growth of the corresponding imatinib-resistant cell lines | growth of the parental K562 line (K562 parent cell line): blocked not only the growth of the parental K562 line
